Measured values: ChEMBL document CHEMBL3217752, “Small molecules targeting phosphoinositide 3-kinases” (Medchemcomm, 2012)
pIC50: −log10 of the molar value.

Legend:
[1] = biological target: T1, Phosphatidylinositol 4,5-bisphosphate 3-kinase catalytic subunit beta isoform (Homo sapiens, UniProt P42338)
[2] = biological target: T2, Phosphatidylinositol 4,5-bisphosphate 3-kinase catalytic subunit gamma isoform (Homo sapiens, UniProt P48736)
[3] = biological target: Serine/threonine-protein kinase mTOR (Homo sapiens, UniProt P42345)
[4] = biological target: T3, Phosphatidylinositol 4,5-bisphosphate 3-kinase catalytic subunit delta isoform (Homo sapiens, UniProt O00329)
T3 sequence (O00329 whole entry): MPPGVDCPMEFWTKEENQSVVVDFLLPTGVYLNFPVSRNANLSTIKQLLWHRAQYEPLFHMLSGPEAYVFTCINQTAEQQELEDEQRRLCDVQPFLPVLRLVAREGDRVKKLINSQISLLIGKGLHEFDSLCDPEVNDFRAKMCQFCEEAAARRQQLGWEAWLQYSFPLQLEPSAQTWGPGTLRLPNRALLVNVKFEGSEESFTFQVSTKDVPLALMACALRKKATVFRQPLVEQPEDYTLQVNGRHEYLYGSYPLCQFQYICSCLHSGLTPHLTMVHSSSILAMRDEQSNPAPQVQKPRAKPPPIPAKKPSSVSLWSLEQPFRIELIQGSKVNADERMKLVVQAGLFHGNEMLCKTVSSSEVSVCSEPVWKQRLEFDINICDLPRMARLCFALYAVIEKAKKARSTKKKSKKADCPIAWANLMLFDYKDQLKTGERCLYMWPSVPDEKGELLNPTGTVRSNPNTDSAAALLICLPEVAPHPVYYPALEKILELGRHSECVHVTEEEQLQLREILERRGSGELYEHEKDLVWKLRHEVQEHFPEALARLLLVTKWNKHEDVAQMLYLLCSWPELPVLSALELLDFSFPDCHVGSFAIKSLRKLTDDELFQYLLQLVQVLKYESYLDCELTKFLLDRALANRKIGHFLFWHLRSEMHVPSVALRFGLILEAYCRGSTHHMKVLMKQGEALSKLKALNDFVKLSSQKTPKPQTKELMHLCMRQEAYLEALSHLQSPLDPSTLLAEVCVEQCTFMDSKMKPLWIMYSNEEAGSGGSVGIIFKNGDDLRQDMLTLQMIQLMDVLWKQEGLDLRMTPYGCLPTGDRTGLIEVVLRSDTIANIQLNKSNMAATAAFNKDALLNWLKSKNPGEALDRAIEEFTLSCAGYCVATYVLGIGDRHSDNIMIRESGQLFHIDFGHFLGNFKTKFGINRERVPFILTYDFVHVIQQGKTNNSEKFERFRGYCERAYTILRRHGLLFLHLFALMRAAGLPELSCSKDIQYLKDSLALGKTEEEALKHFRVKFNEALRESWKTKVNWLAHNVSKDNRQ

[5] = biological target: T2, Phosphatidylinositol 4,5-bisphosphate 3-kinase catalytic subunit gamma isoform; remark: listed apart in the source
[6] = biological target: DNA-dependent protein kinase catalytic subunit (Homo sapiens, UniProt P78527)
[7] = biological target: T4, Phosphatidylinositol 4,5-bisphosphate 3-kinase catalytic subunit alpha isoform (Homo sapiens, UniProt P42336)
[8] = biological target: mTORC1 (Homo sapiens, UniProt P42345); format: protein-complex assay
[9] = clinical; details: human, in vivo
[10] = cells; format: cell-based; details: Homo sapiens
[11] = biological target: T4, Phosphatidylinositol 4,5-bisphosphate 3-kinase catalytic subunit alpha isoform; format: cell-based
[12] = biological target: T1, Phosphatidylinositol 4,5-bisphosphate 3-kinase catalytic subunit beta isoform; format: cell-based

T1 sequence (P42338 whole entry, canonical isoform): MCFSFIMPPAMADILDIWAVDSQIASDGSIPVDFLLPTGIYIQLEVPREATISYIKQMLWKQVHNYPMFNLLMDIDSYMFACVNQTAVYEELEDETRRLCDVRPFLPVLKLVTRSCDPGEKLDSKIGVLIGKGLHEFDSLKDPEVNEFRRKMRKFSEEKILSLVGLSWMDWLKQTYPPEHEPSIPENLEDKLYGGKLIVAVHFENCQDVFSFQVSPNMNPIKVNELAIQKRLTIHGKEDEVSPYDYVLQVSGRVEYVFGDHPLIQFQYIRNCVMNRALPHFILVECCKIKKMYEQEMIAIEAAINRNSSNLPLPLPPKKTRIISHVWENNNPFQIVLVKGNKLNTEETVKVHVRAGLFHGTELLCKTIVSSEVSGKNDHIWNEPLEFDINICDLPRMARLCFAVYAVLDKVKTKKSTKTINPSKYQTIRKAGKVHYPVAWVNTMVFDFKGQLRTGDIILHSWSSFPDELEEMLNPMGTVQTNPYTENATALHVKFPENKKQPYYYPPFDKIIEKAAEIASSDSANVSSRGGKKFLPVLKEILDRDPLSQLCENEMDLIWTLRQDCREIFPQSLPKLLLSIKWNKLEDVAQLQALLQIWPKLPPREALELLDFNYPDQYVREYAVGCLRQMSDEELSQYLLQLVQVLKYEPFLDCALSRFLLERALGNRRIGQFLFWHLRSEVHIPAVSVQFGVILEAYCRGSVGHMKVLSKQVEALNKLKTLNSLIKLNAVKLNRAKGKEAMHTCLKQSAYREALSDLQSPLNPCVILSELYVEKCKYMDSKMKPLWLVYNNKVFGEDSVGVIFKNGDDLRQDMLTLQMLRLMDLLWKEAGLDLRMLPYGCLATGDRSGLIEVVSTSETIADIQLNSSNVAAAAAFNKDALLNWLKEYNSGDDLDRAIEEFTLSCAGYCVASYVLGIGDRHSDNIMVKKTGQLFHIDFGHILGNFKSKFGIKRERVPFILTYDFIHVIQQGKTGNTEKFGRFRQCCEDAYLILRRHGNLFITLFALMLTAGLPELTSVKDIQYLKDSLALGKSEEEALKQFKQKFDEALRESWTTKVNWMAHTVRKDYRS
T4 sequence (P42336 whole entry, canonical isoform): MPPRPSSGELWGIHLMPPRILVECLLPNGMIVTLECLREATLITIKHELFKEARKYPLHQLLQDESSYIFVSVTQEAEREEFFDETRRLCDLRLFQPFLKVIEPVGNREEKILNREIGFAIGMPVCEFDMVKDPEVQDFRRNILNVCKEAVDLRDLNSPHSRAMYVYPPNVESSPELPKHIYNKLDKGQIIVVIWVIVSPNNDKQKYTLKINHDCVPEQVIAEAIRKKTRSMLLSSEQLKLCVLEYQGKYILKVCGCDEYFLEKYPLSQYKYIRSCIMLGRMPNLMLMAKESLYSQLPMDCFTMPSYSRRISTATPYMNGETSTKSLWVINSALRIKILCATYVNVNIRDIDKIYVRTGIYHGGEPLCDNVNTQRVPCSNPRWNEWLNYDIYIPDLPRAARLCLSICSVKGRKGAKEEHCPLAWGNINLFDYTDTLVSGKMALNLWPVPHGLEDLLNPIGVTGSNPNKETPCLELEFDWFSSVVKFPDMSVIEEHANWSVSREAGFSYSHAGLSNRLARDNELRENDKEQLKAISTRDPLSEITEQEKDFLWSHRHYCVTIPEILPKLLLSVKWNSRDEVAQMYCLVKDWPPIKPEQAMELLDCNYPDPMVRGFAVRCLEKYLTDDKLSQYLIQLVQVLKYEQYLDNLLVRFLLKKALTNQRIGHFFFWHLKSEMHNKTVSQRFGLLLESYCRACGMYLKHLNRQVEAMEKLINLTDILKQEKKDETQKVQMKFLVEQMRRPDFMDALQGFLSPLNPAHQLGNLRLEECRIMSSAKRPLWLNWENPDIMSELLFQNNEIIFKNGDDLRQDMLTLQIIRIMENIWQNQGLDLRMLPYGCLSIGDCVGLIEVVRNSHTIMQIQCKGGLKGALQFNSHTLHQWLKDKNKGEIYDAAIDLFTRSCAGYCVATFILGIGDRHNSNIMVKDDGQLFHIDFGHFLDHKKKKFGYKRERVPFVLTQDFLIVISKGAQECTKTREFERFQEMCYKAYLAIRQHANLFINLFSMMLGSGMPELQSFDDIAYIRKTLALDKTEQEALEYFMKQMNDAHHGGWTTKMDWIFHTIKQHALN
T2 sequence (P48736 whole entry, canonical isoform): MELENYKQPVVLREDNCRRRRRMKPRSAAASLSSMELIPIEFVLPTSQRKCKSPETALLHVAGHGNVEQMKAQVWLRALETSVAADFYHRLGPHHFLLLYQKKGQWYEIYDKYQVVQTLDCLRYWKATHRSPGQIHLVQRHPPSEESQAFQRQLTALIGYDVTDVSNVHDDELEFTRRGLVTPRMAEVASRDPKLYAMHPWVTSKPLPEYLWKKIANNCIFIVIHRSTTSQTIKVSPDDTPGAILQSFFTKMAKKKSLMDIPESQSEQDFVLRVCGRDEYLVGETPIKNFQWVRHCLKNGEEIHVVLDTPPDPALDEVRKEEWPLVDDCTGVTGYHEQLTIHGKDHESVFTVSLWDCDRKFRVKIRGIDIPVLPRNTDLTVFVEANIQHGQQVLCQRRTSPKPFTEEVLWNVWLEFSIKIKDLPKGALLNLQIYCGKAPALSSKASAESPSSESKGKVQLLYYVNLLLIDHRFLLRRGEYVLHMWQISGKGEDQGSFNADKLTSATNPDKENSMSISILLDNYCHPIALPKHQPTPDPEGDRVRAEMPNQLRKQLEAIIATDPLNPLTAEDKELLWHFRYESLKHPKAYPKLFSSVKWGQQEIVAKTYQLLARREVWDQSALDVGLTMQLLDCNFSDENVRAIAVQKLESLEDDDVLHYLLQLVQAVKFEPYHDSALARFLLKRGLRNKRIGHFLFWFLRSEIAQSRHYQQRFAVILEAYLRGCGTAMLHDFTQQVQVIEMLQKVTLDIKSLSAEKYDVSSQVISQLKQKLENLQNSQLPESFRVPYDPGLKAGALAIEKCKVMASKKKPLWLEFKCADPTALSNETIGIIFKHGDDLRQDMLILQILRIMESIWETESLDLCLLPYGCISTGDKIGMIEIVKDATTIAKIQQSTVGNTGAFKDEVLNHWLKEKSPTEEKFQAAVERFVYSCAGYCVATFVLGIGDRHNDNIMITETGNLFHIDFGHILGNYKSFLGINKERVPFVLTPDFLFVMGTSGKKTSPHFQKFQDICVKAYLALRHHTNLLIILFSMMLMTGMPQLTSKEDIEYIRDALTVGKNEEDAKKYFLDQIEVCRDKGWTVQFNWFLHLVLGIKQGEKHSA

Question: With `O=Cc1ccc(N2CCOCC2)cc1O` as the compound, how does the pIC50 [1] read?
Answer: 5.55

Question: With `CN1CCOc2cc(/C=C3\SC(=O)NC3=O)ccc21` as the compound, how does the pIC50 [2] read?
Answer: < 5.00

Question: With `Cc1cc(Oc2ccccc2C)c2[nH]c(N3CCOCC3)cc(=O)c2c1` as the compound, how does the pIC50 [1] read?
Answer: 6.89

Question: With `Cc1cc(NCc2ccccc2C)c2nc(N3CCOCC3)cc(=O)n2c1` as the compound, how does the pIC50 [1] read?
Answer: 6.96

Question: With `Cc1ccc(S(=O)(=O)Nc2nc3ccccc3nc2Nc2ccc3nsnc3c2)cc1` as the compound, how does the pIC50 [1] read?
Answer: 6.42

Question: With `N=C(N)NCCCC(NC(=O)CCC(=O)OC[N+]1(c2cc(=O)c3cccc(-c4ccccc4)c3o2)CCOCC1)C(=O)NCC(=O)NC(CC(=O)O)C(=O)NC(CO)C(=O)[O-]` (stereo not drawn) as the compound, how does the pIC50 [3] read?
Answer: 5.97

Question: What about the pIC50 [1] of the same compound?
Answer: 6.13

Question: And the pIC50 [4]?
Answer: 5.49

Question: And the pIC50 [5]?
Answer: 5.75

Question: What about the pIC50 [6] of the same compound?
Answer: 6.45

Question: And the pIC50 [7]?
Answer: 6.45

Question: With `COc1cc(Nc2nc3ccccc3nc2NS(=O)(=O)c2ccc(NC(=O)c3ccc(C)c(OC)c3)cc2)cc(OC)c1` as the compound, how does the pIC50 [8] read?
Answer: 6.72

Question: What about the pIC50 [6] of the same compound?
Answer: 6.82

Question: Which half-life [9] does the source give for `COc1ccc(-c2ccc3ncc4c(c3c2)n(-c2ccc(N3CCNCC3)c(C(F)(F)F)c2)c(=O)n4C)cn1` [BGT-226 FREE BASE] here?
Answer: 6 h

Question: With `COc1c(OCCCN2CCOCC2)ccc2c1N=C(NC(=O)c1cnc(N)nc1)N1CCN=C21` [COPANLISIB] as the compound, how does the pIC50 [10] read?
Answer: > 9.00

Question: With `CC[C@H](Nc1ncnc2[nH]cnc12)c1nc2cccc(F)c2c(=O)n1-c1ccccc1` [IDELALISIB] as the compound, how does the pIC50 [3] read?
Answer: < 5.00

Question: Which results are given for `Oc1ccc(/C=C/c2cc(O)cc(O)c2)cc1` [RESVERATROL]?
Answer: pIC50 [11]: 6.60; pIC50 [12]: 6.30
